No end group written: not given here.
Assays:
[1] = target: PKAc (catalytic subunit of PKA, PKAcα 16-351) (Mus musculus, UniProt P05132); assay: ADP-Glo kinase assay, Michaelis-Menten kinetics of PKAc phosphorylation of substrates; details: for kcat / Km / kcat/Km: ADP-Glo, 3 nM PKAc, 1 mM ATP, 5 mM Mg2+; for kcat / Km: substrate 0-256 μM, room temperature 30 min; for kcat: 50 mM Hepes pH 7.4, 150 mM KCl, mean ± SD of n = 3 or 4 biological replicates, less reliable for poor substrates; for Km: Michaelis-Menten fit; for Km / kcat/Km: mean ± SD of n = 3 or 4; for reduction in kcat/Km versus WT Ser1981 peptide: from kcat/Km of Table 2
Protocol: We used enzyme kinetics to investigate the activity of catalytic subunit of PKA (PKAc) toward the three target sites within the C terminus of CaV1.2. We performed discontinuous kinase assays using an ADP-GloMax Assay kit.
Kinase assays were conducted using an ADP-Glo Kinase Assay Kit (Promega). […] Therefore, we performed assays with excess ATP (1 mM) and Mg^2+ (5 mM) to saturate PKAc prior to substrate binding. Reagents were prepared as described in the kit, aliquoted, and frozen at −20 °C prior to use. Reactions were conducted in 384-well solid white polystyrene microplates (Corning). Peptide substrates and EFPreIQ were dissolved and/or diluted to 800 μM using 50 mM Hepes (pH 7.4), 150 mM KCl, 5 mM MgCl2, and 4 mM TCEP. […] For peptides lacking tryptophan, the amount of volume needed to achieve a concentration of 800 μM was calculated prior to dissolving. The peptides/substrate was 2-fold serially diluted using the same buffer to create 11 reactions per curve ranging from 0 to 256 μM. ATP was added to each reaction to achieve a final concentration of 1 mM. Reactions were initiated by the addition of thawed PKAc at a final concentration of 3 nM at a final well volume of 20 μl. After allowing reactions to occur at room temperature for 30 min, 3 × 5 ml from each reaction in a curve was taken and mixed with 5 ml ADP-Glo Reagent for a total of three technical replicates per biological replicate. After 40 min, 10 ml of kinase detection reagent was added to each technical replicate and, after waiting 60 min, relative luminescence unit were measured using a VICTOR X4 Multilabel Plate Reader (PerkinElmer).
The relative luminescence unit values were converted to specific activity values via interpolation of a standard curve that was created in accordance with the manufacturer’s protocol. The three technical replicates were averaged to calculate a biological replicate value and plotted against peptide concentration using GraphPad 9 (Prism) software (https://www.graphpad.com/updates/prism-900-release-notes). Technical replicate values resulting from experimental error were removed from the dataset and subsequent averaging. […] The Michaelis–Menten kinetics fitting function was used to generate a nonlinear regression to calculate both a Km constant and Vmax value for each biological replicate curve. These Km constant and Vmax values were averaged and SDs are reported. Figures displaying data points and Michaelis–Menten curves depict the average specific activity values calculated from all biological replicates in the three or four experiments (n = 3 or n = 4) per peptide (n = 4 for Ser1981 and Ser272 peptides, n = 3 for all others).
PKAc:AMP-PNP = target: T1, PKAc:AMP-PNP (Mus musculus, UniProt P05132); assay: Isothermal titration calorimetry of substrates binding to PKAc:AMP-PNP
T1 construct: 6xHis (N, cleaved yes); made in house; host or cells: Escherichia coli Rosetta (DE3)pLysS
Protocol: As an independent means to assess which substrate peptides are preferred by PKAc, we used ITC to determine the inherent affinities for the various peptides. ITC also provides the enthalpy and entropy changes upon binding and can thus help provide a rationale for different affinities. The ITC experiments were performed using excess Mg^2+ (5 mM) and 0.5 mM adenylyl-imidodiphosphate (AMP)-PNP (a nonhydrolyzable ATP analog) (Fig. 2).
ITC experiments were conducted using a MicroCal iTC200 (GE Healthcare, now Malvern) instrument. The ITC/assay buffer was used to dissolve peptides to a concentration of 1.25 to 4.3 mM. Substrate concentrations were optimized and chosen based on how much was needed to achieve sufficient signal to noise ratio. Rad Ser25 peptide contained a tryptophan residue, which allowed us to determine its concentration via 280 nm absorbance readings using an extinction coefficient of 5500 M^−1 cm^−1. For peptides lacking a tryptophan or tyrosine residue (Ser1981 WT and mutant peptides, Ser1718 peptide, Ser272 peptide, and Ser300 peptide), the amount of volume needed to achieve the desired concentration was calculated prior to diluting. Peptides were received as powder in 1 mg aliquots and using molecular weights of the peptide, the number of moles in each aliquot was determined. The number of moles was used to determine how much volume was required to achieve the desired concentration. AMP-PNP (Millipore Sigma) was dissolved in ITC/Assay buffer to a concentration of 100 mM, aliquoted in 20 μl volumes, and stored at −70 °C. Prior to each run, both titrant and titrand solutions were supplemented with AMP-PNP to a final concentration of 500 μM. The titration experiments were conducted at 4 °C with a stirring speed of 500 RPM. Each titration experiment was comprised of 20 injections with 230 s in between each injection. Each injection totalled 2.0 μl over 4 s except the first injection being 0.4 μl over 0.8 s. Background runs of peptide/substrate into ITC/assay buffer were conducted to generate a linear regression using the isotherm to subtract background heats from experimental runs. Peptides displaying large background heats were dialyzed in ITC/assay buffer for 60 min to remove contaminants remaining from peptide synthesis. The peptide into PKAc runs (experimental runs) utilized the same settings. The data was processed using Origin (Version 7.0, OriginLab) software (https://www.originlab.com/origin).

[2] = ITC, 4 °C, 0.5 mM AMP-PNP, 5 mM MgCl2, mean ± SD, n = 3
[3] = 4 °C, 0.5 mM AMP-PNP, 5 mM MgCl2

Row | Substance | kcat [1] | binding to PKAc detected by ITC (PKAc:AMP-PNP; [3]) | other results
1 | LRRASLG [Kemptide, reference compound] | 19.0 ± 1.5 s⁻¹ | – | Km [1]: 42.6 ± 2.4 µM; kcat/Km [1]: 470000 ± 50000 M⁻¹ s⁻¹
2 | RGFLRSARLGRRASFHL [S1975R peptide, CaV1.2 S1981 peptide mutant S1975R] | 7.5 ± 0.9 s⁻¹ | – | Km [1]: 6.2 ± 2.7 µM; kcat/Km [1]: 1.2e+06 ± 500000 M⁻¹ s⁻¹; reduction in kcat/Km versus WT Ser1981 peptide [1]: 37%; ΔG (PKAc:AMP-PNP; [2]): -5.11 ± 2.2 kcal/mol; −TΔS (PKAc:AMP-PNP; [2]): -8.6 ± 2.2 kcal/mol; reduction in affinity for PKAc versus WT Ser1981 peptide (PKAc:AMP-PNP; ITC, from KD of Table 3): more than 15 fold
3 | RGFLRSASLGRAASFHL [R1979A peptide, CaV1.2 S1981 peptide mutant R1979A] | 1.1 ± 0.1 s⁻¹ | no longer detect any interaction | enzymatic activity of PKAc toward the peptide ([1]; ADP-Glo kinase assay): very low
4 | RGFLRSASLGRRASAHL [F1982A peptide] | – | – | reduction in kcat/Km versus WT Ser1981 peptide [1]: ~26%
5 | RTLHDIGPEIRRAISGDL [S1718 peptide, synthetic peptide, human CaV1.2 residues 1704–1721 containing Ser1718] | 3.4 ± 1.3 s⁻¹ | could not detect any heat signals indicative of binding | –
6 | SNADYLTRDWSILG… [EFPreIQ (S1535), recombinant human CaV1.3 residues 1468–1598 (EF-hand and PreIQ domain) mimicking the CaV1.2 Ser1535 site] | 1.3 ± 0.2 s⁻¹ | could not detect any heat signals indicative of binding | –
7 | SRKMAFRAKSKSCHD [Rad S300 peptide, Rad-derived peptide, residues 289–303 containing Ser300] | 3.3 ± 1.4 s⁻¹ | not | –
8 | WGPAPPLHRRSMP [Rad S38 peptide, Rad-derived peptide, residues 28–40 containing Ser38] | 2 ± 1.9 s⁻¹ | not | kcat ([1]; listed as Ser38): 2.0 ± 1.9 s⁻¹
